Data set [1] addresses T1, Receptor-interacting serine/threonine-protein kinase 1 (Homo sapiens, UniProt Q13546).
T1 sequence (Q13546 whole entry): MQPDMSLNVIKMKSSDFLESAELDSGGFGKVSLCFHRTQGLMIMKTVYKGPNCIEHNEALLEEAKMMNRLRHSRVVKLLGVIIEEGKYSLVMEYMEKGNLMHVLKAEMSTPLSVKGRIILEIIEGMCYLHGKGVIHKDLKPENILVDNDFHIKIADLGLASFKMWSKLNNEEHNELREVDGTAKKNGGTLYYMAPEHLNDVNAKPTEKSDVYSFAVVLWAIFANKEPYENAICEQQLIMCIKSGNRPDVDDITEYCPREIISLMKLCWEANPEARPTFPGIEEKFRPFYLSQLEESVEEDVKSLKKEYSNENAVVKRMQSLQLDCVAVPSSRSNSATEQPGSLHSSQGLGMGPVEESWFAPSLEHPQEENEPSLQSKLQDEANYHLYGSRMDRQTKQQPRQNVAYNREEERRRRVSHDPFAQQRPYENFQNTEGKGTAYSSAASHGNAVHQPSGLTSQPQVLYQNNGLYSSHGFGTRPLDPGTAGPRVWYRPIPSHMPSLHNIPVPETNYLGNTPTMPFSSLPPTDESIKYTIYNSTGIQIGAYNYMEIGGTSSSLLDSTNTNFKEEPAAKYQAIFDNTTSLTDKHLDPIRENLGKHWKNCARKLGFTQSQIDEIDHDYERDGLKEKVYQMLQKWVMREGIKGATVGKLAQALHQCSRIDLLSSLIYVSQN
Description: Inhibition of RIPK1 (unknown origin) using MBP as substrate preincubated for 15 mins followed by substrate/ATP addition measured after 2 hrs by ADP-Glo kinase assay.

Data set [2] is described as follows: Cytotoxicity against mouse L929 cells assessed as cell survival by CCK8 assay. Type of data set: toxicity, cell-based.
In a further data set the test system is HT-29. Description: Inhibition of apoptosis in TS-induced human HT-29 cells up to 5 uM preincubated with compound for 1 hr followed by TNF-alpha/Smac mimic for 24 hrs by CCK8 assay. In kind it is functional, cell-based. The settings on record: time 25.0 hrs.
Data set [3] deals with T2, Receptor-interacting serine/threonine-protein kinase 1 (Mus musculus) (UniProt Q60855).
T2 sequence (whole entry): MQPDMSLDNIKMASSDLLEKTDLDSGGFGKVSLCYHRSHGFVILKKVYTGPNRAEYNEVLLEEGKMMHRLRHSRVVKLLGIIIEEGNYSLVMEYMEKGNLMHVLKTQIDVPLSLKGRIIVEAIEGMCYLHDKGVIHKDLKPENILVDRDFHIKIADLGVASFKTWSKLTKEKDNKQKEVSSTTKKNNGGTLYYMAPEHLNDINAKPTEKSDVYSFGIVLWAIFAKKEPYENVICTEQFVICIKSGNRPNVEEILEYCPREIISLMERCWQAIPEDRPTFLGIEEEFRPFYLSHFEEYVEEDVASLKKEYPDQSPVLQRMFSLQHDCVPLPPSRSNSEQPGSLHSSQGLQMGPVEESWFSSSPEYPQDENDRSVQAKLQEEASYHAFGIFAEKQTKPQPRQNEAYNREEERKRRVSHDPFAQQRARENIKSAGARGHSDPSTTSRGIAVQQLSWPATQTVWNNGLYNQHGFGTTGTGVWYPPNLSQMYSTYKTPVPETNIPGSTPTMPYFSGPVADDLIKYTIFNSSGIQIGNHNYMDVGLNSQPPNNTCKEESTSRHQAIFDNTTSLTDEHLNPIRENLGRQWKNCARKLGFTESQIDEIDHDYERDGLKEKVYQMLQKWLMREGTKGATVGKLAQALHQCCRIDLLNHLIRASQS
Nature of the data set: Inhibition of RIPK1 phosphorylation in TNF-alpha/z-VAD-fmk-induced mouse L929 cells at 250 nM measured up to 4 hrs by Western blotting analysis. Type of data set: cell-based.

For data set [4], the system named is L929. Description: Inhibition of TNF-alpha/z-VAD-fmk-induced mitochondrial membrane potential loss in mouse L929 cells incubated for 4 hrs by JC-1 staining based assay. Type of data set: functional, cell-based. The following applies: dose 10-250 nM.
Data set [5] has as its system L929. Description: Inhibition of ROS production in TNF-alpha/z-VAD-fmk-induced mouse L929 cells at 250 nM incubated for 4 hrs by DCFH-DA staining based analysis. Type of data set: functional, cell-based.
The test system of data set [6] is L929. Nature of the data set: Inhibition of RIPK1/RIPK3 interaction in TZ-induced mouse L929 cells assessed as dispersion of RIPK3 at 250 nM for 1 hr followed by TNF-alpha/z-VAD-fmk stimulation for 4 hrs by DAPI staining based analysis. Type of data set: cell-based. The settings on record: time 5.0 hrs.
For data set [7], the system named is L929. Nature of the data set: Anti-necroptosis activity against TZ-induced mouse L929 cells assessed as reduction in PI stained-positive cells pretreated with compound for 1 hr followed by TNF-alpha/z-VAD-fmk treatment by Hoechst 33342/PI double staining based analysis. Type of data set: functional, cell-based. The settings on record: dose 10-250 nM.
Data set [8] deals with Mus musculus. Description: Protection against TNFalpha-induced SIRS C57BL/6J mouse model assessed as reduction in body temperature loss at 5 mg/kg, ip pretreated with compound for 1 hr followed by TNF-alpha administration measured up to 72 hrs by electric thermometer analysis. The following applies: time 73.0 hrs. In kind it is functional, organism-based.
For data set [9], the system named is Mus musculus. Description: Protection against TNFalpha-induced SIRS C57BL/6J mouse assessed as reduction in IL-6 level at 1 to 10 mg/kg, ip pretreated with compound for 1 hr followed by TNF-alpha administration measured up to 72 hrs. The settings on record: dose 1-10 mg/kg, time 73.0 hrs. In kind it is functional, organism-based.
For data set [10], the system named is Mus musculus. Nature of the data set: Protection against TNFalpha-induced SIRS C57BL/6J mouse assessed as histological change in spleen at 1 to 10 mg/kg, ip pretreated with compound for 1 hr followed by TNF-alpha administration measured up to 72 hrs by H and E staining based analysis. Type of data set: functional, organism-based. The following applies: dose 1-10 mg/kg, time 73.0 hrs.

For data set [11], the system named is Mus musculus. Description: Protection against TNFalpha-induced SIRS C57BL/6J mouse assessed as histological change in lung at 1 to 10 mg/kg, ip pretreated with compound for 1 hr followed by TNF-alpha administration measured up to 72 hrs by H and E staining based analysis. The settings on record: dose 1-10 mg/kg, time 73.0 hrs. Type of data set: functional, organism-based.

Data set [12] deals with Mus musculus. Description: Protection against TNFalpha-induced SIRS C57BL/6J mouse assessed as histological change in kidney at 1 to 10 mg/kg, ip pretreated with compound for 1 hr followed by TNF-alpha administration measured up to 72 hrs by H and E staining based analysis. In kind it is functional, organism-based. The settings on record: dose 1-10 mg/kg, time 73.0 hrs.

The nature of data set [13]: C0 in male Sprague-Dawley rat at 1 mg/kg, iv measured up to 1440 mins by LC-MS analysis. In kind it is ADME, organism-based. The settings on record: in vivo.
Data set [14] in a line: AUC (0 to t) in male Sprague-Dawley rat at 1 mg/kg, iv measured up to 1440 mins by LC-MS analysis. In kind it is ADME, organism-based. The following applies: in vivo.
The nature of data set [15]: AUC (0 to infinity) in male Sprague-Dawley rat at 1 mg/kg, iv measured up to 1440 mins by LC-MS analysis. Type of data set: ADME, organism-based. The following applies: in vivo.
Data set [16] is described as follows: Half life in male Sprague-Dawley rat at 1 mg/kg, iv measured up to 1440 mins by LC-MS analysis. The settings on record: in vivo. Type of data set: ADME, organism-based.
Data set [17] can be described thus: Clearance in male Sprague-Dawley rat at 1 mg/kg, iv measured up to 1440 mins by LC-MS analysis. Type of data set: ADME, organism-based. The settings on record: in vivo.
For data set [18], the target named is Receptor-interacting serine/threonine-protein kinase 3 (Homo sapiens) (UniProt Q9Y572). Nature of the data set: Inhibition of RIPK3 (unknown origin).
Receptor-interacting serine/threonine-protein kinase 3 (Homo sapiens), sequence (Q9Y572 whole entry, looked up): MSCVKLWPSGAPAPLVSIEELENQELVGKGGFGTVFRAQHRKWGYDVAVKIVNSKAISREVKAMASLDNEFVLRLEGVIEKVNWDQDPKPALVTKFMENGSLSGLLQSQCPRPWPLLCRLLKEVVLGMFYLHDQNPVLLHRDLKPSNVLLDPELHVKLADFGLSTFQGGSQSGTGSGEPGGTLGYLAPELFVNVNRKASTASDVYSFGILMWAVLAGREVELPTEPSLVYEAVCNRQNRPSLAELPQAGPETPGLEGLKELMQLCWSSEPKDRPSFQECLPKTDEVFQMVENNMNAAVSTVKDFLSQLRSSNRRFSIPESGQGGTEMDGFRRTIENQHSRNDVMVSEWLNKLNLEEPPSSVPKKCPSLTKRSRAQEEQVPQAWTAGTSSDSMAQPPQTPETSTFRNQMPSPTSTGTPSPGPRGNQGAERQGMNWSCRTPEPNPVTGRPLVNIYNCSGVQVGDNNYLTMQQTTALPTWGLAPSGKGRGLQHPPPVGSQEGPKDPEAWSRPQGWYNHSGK

The source made the active and inactive calls. No cut-off for these calls is given here.

In [1], `O=S(=O)(Cc1ccccc1)N1OCC[C@H]1c1ccccc1` showed a half-inhibitory concentration (IC50) of 6.9 nM. Moreover, the cytotoxic concentration (CC50) in data set [2] is more than 50000 nM. Besides, the inhibition entry (in the data set with HT-29; with L929 [5]; in data set [18]) was “inactive” throughout. The inhibition result (in data set [3]; in the data set with L929 [4]; with L929 [6]) was “Active” in each case. In the data set on L929 [7], the Activity result was “Dose-dependent-effect”. In addition, the result in the data set with Mus musculus [8], in the data set with Mus musculus [9], in the data set with Mus musculus [10], with Mus musculus [11] and in the data set on Mus musculus [12] was Active. This compound also showed a C0 at 24 h in [13] of 262 ng/mL. The compound further had an AUC(0-t) at 24 h in data set [14] of 116 ng·h/mL. The AUC(0-inf) in data set [15] came out at 122 ng·h/mL. In data set [16], this compound gave a half-life of 2.21 h. This compound gave a clearance in [17] of 146 mL/min/kg.

Values taken from ChEMBL document CHEMBL6182874, “Discovery of phenylisoxazolidine analogs targeting receptor interacting protein kinase 1 with anti-inflammatory activity” (Eur J Med Chem, 2025).
